Experimental findings from US20260078130A1, “NAMPT MODULATORS, PREPARATIONS, AND USES THEREOF” (SIRONAX LTD., priority 2022, published 2026) are described below.

The target in assay [1] is T1, human enzyme NAMPT (full length) (Homo sapiens, UniProt P43490).
T1 construct: human enzyme NAMPT (full length)
As to the kind of experiment: NMN fluorescence biochemical assay (stimulation of NMN synthesis by NAMPT). The note with it: for EC50: concentration giving half-maximal activation, read-out: Enzymatic EC50; for Enzymatic Emax: fold change of maximal activation compared to DMSO. The method, boiled down: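 Full-length human NAMPT (100 nM) was preincubated 15 min at 37 °C with compound in 50 mM Tris-HCl pH 7.5, 10 mM MgCl2, 2 mM DTT, then reacted 1 h at 37 °C with 50 μM NAM, 100 μM PRPP, 4 mM ATP (stated solution concentrations). NMN was derivatised with acetophenone/KOH then formic acid and read at Ex/Em 382/445 nm; EC50 and Emax (fold over DMSO) reported.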

Assay [2] concerns endogenous NAMPT in U2OS cells. As to the kind of experiment: Cellular NAD+ modulation assay (NAD/NADH-Glo, U2OS cells). The note with it: Homo sapiens; for maximal fold induction: read-out: Cellular Emax. Format: cell-based. The method, boiled down: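 NAD/NADH-Glo luminescence quantified NAD+ after acid treatment (60 °C, 15 min) and neutralization of DTAB lysates. Beforehand, U2OS cells seeded 16 h earlier received compound concentration series for 24 h at 37 °C. Values given as half-maximal activation concentration (EC50) and maximal fold change versus DMSO (Emax).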

[3] abbreviates: NMN fluorescence assay, purified human NAMPT 100 nM.
Where [4] appears, read: 24 hours incubation, cellular NAD+.
[5] abbreviates: NMN synthesis by purified human NAMPT (100 nM).
The mark [6] stands for this setting: 24 hours incubation with compound.

Read-outs that look alike come from different tables or passages of the source.

T1 sequence (P43490 whole entry): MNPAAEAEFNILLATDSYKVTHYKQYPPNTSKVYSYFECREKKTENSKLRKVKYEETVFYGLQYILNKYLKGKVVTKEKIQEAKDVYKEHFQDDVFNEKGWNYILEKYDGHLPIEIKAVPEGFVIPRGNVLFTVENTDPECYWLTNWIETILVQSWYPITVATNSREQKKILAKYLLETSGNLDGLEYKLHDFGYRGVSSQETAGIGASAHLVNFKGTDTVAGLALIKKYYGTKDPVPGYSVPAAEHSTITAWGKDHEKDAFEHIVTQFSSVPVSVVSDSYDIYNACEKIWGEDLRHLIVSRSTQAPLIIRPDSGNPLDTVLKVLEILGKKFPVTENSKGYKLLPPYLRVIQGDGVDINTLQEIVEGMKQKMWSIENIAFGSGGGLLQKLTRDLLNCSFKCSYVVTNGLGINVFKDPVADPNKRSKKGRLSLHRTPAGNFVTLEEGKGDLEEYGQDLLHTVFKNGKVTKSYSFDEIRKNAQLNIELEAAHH

`Cn1ncc(Cl)c1CC1c2ccccc2C(C)(C)N1CC1CC2(CNC(=O)O2)C1` (stereo not shown) [Compound 565, 2-((3-((4-chloro-1-methyl-1H-pyrazol-5-yl)methyl)-1,1-dimethylisoindolin-2-yl)methyl)-5-oxa-7-azaspiro[3.4]octan-6-one]: the EC50 in assay [1] (setting [3]) was less than 500 nM. Further, in assay [1], the “Enzymatic Emax” value is “A (A>3)”. In assay [2] (setting [4]), the EC50 was less than 500 nM and the maximal fold induction is greater than 1.5.
Consider `CC1c2ccccc2C(=O)N1Cc1ccc2[nH]c(=O)oc2c1` (stereo not shown) [Compound 54, 6-((1-methyl-3-oxoisoindolin-2-yl)methyl)benzo[d]oxazol-2(3H)-one], for which, in assay [1] (setting [5]), the EC50 was no less than 5000 nM. In addition, the “Enzymatic Emax” value in assay [1] was “A (A>3)”. Moreover, in assay [2] (setting [6]), the EC50 fell in the range of 500 to 5000 nM and the maximal fold induction was greater than 1.5.
On the same counts, the results for `Cc1ccc2c(c1)CN(Cc1ccc3[nH]c(=O)oc3c1)C2=O` [Compound 48, 6-((5-methyl-1-oxoisoindolin-2-yl)methyl)benzo[d]oxazol-2(3H)-one] are no less than 5000 nM, “B (3≥B>2)”, 500 to 5000 nM and greater than 1.5.
Take `Cn1ncc(Cl)c1CC1c2cc(N3CCOCC3)ccc2C(=O)N1Cc1ccc2[nH]nnc2c1` (stereo not shown) [Compound 324, 2-((1H-benzo[d][1,2,3]triazol-5-yl)methyl)-3-((4-chloro-1-methyl-1H-pyrazol-5-yl)methyl)-5-morpholinoisoindolin-1-one]: the EC50 in assay [1] (setting [3]) was less than 500 nM. For the same compound, the “Enzymatic Emax” value in assay [1] is on record as “A (A>3)”. Moreover, in assay [2] (setting [4]), the EC50 was less than 500 nM and the maximal fold induction is greater than 1.5.
As for `O=C1c2ccccc2C(Cc2ncccc2C(F)F)N1Cc1ccc2[nH]c(=O)oc2c1` (stereo not shown) [Compound 191, 6-((1-((3-(difluoromethyl)pyridin-2-yl)methyl)-3-oxoisoindolin-2-yl)methyl)benzo[d]oxazol-2(3H)-one], the EC50 in assay [1] (setting [5]) and in assay [2] (setting [6]) was 500 to 5000 nM throughout. Besides, the “Enzymatic Emax” value in assay [1] is reported as “A (A>3)”. Moreover, the maximal fold induction in assay [2] (setting [6]) was greater than 1.5.
With `O=C1c2ccccc2C(Cc2ncccc2Br)N1C/C=C/c1cn[nH]c1` (stereo not shown) [Compound 423, (E)-2-(3-(1H-pyrazol-4-yl)allyl)-3-((3-bromopyridin-2-yl)methyl)isoindolin-1-one], the EC50 in assay [1] (setting [3]) was less than 500 nM. In addition, the “Enzymatic Emax” value in assay [1] was “B (3≥B>2)”. Further, in assay [2] (setting [4]), the EC50 is less than 500 nM and the maximal fold induction was greater than 1.5.
As to `CC(C)c1ccc2c(c1)C(=O)N(Cc1ccc(O)cc1)C2=O` [Compound 26, 2-(4-hydroxybenzyl)-5-isopropylisoindoline-1,3-dione], the EC50 in assay [1] (setting [5]) is 500 to 5000 nM; in assay [2] (setting [6]) it was less than 500 nM. In addition, in assay [1], the “Enzymatic Emax” value was “A (A>3)”. Further, the maximal fold induction in assay [2] (setting [6]) was no more than 1.2.
On the same counts, the results for `CC1c2cc(C3CC3)ccc2C(=O)N1Cc1ccc2[nH]c(=O)oc2c1` (stereo not shown) [Compound 125, 6-((5-cyclopropyl-3-methyl-1-oxoisoindolin-2-yl)methyl)benzo[d]oxazol-2(3H)-one] are no less than 5000 nM, 500 to 5000 nM, “A (A>3)” and greater than 1.5.
As to `N#Cc1cccc(CC2c3ccccc3C(=O)N2Cc2ccc3[nH]c(=O)oc3c2)c1` (stereo not shown) [Compound 131, 3-((3-oxo-2-((2-oxo-2,3-dihydrobenzo[d]oxazol-6-yl)methyl)isoindolin-1-yl)methyl) benzonitrile], the EC50 in assay [1] (setting [5]) fell in the range of 500 to 5000 nM. For the same compound, the “Enzymatic Emax” value in assay [1] is “A (A>3)”. Also, in assay [2] (setting [6]), the EC50 lay within 500 to 5000 nM and the maximal fold induction was greater than 1.5.
For the compound `Cn1cc(Cl)c(CC2c3ccccc3C(=O)N2Cc2ccc3[nH]c(=O)oc3c2)n1` (stereo not shown) [Compound 232, 6-((1-((4-chloro-1-methyl-1H-pyrazol-3-yl)methyl)-3-oxoisoindolin-2-yl)methyl)benzo[d]oxazol-2(3H)-one], the EC50 in assay [1] (setting [5]) is less than 500 nM. Further, in assay [1], the “Enzymatic Emax” value is “A (A>3)”. In addition, in assay [2] (setting [6]), the EC50 was less than 500 nM and the maximal fold induction is greater than 1.5.
